Assay results reported in PubChem BioAssay AID330 (DTP/NCI, 2004).
Values joined by “and” are separate entries in the source; they are usually repeats but may differ in a detail not shown here. Equal entries are not always repeated. Inconclusive results and toxic doses are left out. The calls were made as follows: active = survival T/C of 150% or more; inactive = T/C below 125% in these data.

Tested on: P388 leukemia ip, CD2F1 mice, survival T/C
Experiment: NCI In Vivo Anticancer Drug Screen. Data for tumor model P388 Leukemia (intraperitoneal) in CD2F1 (CDF1) mice
Conditions: endpoint: median survival time, higher = longer survival
In short: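 Mice carrying the transplanted tumor received test compound or vehicle. Survival was recorded in each group, and the value is the treated-group measurement divided by that of the vehicle-treated control group.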

[1] = dose: 50.0 mg/kg/injection, schedule: Q01DX009 (ip), vehicle: distilled water + Tween-80
[2] = dose: 50.0 mg/kg/injection, schedule: Q01DX005 (ip), vehicle: saline with Tween-80
[3] = dose: 100.0 mg/kg/injection, schedule: Q01DX005 (ip), vehicle: saline with Tween-80
[4] = dose: 50.0 mg/kg/injection, schedule: Q01DX009 (ip), vehicle: saline
[5] = dose: 50.0 mg/kg/injection, schedule: Q01DX009 (ip), vehicle: saline with Tween-80
[6] = dose: 100.0 mg/kg/injection, schedule: Q01DX009 (ip), vehicle: saline with Tween-80
[7] = dose: 100.0 mg/kg/injection, schedule: Q01DX009 (ip), vehicle: saline
[8] = dose: 200.0 mg/kg/injection, schedule: Q01DX009 (ip), vehicle: saline
[9] = dose: 50.0 mg/kg/injection, schedule: Q01DX005 (ip), vehicle: Klucel (hydroxypropylcellulose) (HPC)
[10] = dose: 100.0 mg/kg/injection, schedule: Q01DX005 (ip), vehicle: Klucel (hydroxypropylcellulose) (HPC)
[11] = dose: 200.0 mg/kg/injection, schedule: Q01DX005 (ip), vehicle: Klucel (hydroxypropylcellulose) (HPC)

Measured: T/C

O=C(CCN1C(=O)c2ccccc2C1=O)c1cnc(N2C(=O)c3ccccc3C2=O)[nH]1
inactive: dose: 20.0 mg/kg/injection, schedule: Q01DX005 (ip), vehicle: Klucel (hydroxypropylcellulose) (HPC) 98 % of control | dose: 40.0 mg/kg/injection, schedule: Q01DX005 (ip), vehicle: Klucel (hydroxypropylcellulose) (HPC) 97 % of control | dose: 80.0 mg/kg/injection, schedule: Q01DX005 (ip), vehicle: Klucel (hydroxypropylcellulose) (HPC) 91 % of control

CCOC(=O)Cc1nnc(N)s1
inactive: dose: 50.0 mg/kg/injection, schedule: Q04DX003 (ip), vehicle: saline 94 % of control | dose: 100.0 mg/kg/injection, schedule: Q04DX003 (ip), vehicle: saline 95 % of control | dose: 200.0 mg/kg/injection, schedule: Q04DX003 (ip), vehicle: saline 110 % of control | dose: 400.0 mg/kg/injection, schedule: Q04DX003 (ip), vehicle: saline 104 % of control

Cc1cc(=O)[nH]c(NNC(=O)c2ccc(Cl)cc2)n1
inactive: dose: 25.0 mg/kg/injection, schedule: Q01DX009 (ip), vehicle: distilled water + Tween-80 93 % of control | [1] 86 % of control | dose: 100.0 mg/kg/injection, schedule: Q01DX009 (ip), vehicle: distilled water + Tween-80 93 % of control | dose: 200.0 mg/kg/injection, schedule: Q01DX009 (ip), vehicle: distilled water + Tween-80 89 % of control | dose: 400.0 mg/kg/injection, schedule: Q01DX009 (ip), vehicle: distilled water + Tween-80 101 % of control

N#CC(C(=O)C(=O)Nc1cccc(C(F)(F)F)c1)c1ccccc1 (centres undefined)
inactive: [2] 93 % of control | [3] 100 % of control

COc1cc(NCCCCCNC(C)(C)C)c2ncccc2c1
inactive: dose: 12.5 mg/kg/injection, schedule: Q01DX005 (ip), vehicle: saline with Tween-80 98 % of control | dose: 25.0 mg/kg/injection, schedule: Q01DX005 (ip), vehicle: saline with Tween-80 98 % of control | [2] 100 % of control and 103 % of control

O=C(O)CS(=O)(=O)CC(=O)O
inactive: [4] 95 % of control

Fc1cccc(Cl)c1C(Nc1nc2ccccc2s1)Nc1nc2ccccc2s1
inactive: dose: 60.0 mg/kg/injection, schedule: Q01DX005 (ip), vehicle: Klucel (hydroxypropylcellulose) (HPC) 98 % of control | dose: 120.0 mg/kg/injection, schedule: Q01DX005 (ip), vehicle: Klucel (hydroxypropylcellulose) (HPC) 101 % of control | dose: 240.0 mg/kg/injection, schedule: Q01DX005 (ip), vehicle: Klucel (hydroxypropylcellulose) (HPC) 95 % of control

COc1ccc2ncc(C)c(CO)c2c1
inactive: [2] 116 % of control | [3] 102 % of control | dose: 200.0 mg/kg/injection, schedule: Q01DX005 (ip), vehicle: saline with Tween-80 98 % of control

CC(N=Cc1ccccc1O)c1ccccc1.[CH-]=C([CH2-])C(C)(C)C.[Pd+2] (centres undefined)
inactive: dose: 6.25 mg/kg/injection, schedule: Q04DX003 (ip), vehicle: Klucel (hydroxypropylcellulose) (HPC) 108 % of control | dose: 12.5 mg/kg/injection, schedule: Q04DX003 (ip), vehicle: Klucel (hydroxypropylcellulose) (HPC) 93 % of control | dose: 25.0 mg/kg/injection, schedule: Q04DX003 (ip), vehicle: Klucel (hydroxypropylcellulose) (HPC) 92 % of control

CC1(C(=O)O)CCCC2(C)C3CC(=O)OC3(CC(=O)O)CCC12 (centres undefined)
inactive: dose: 7.5 mg/kg/injection, schedule: Q01DX009 (ip), vehicle: saline + alcohol 91 % of control | dose: 15.0 mg/kg/injection, schedule: Q01DX009 (ip), vehicle: saline + alcohol 98 % of control | dose: 30.0 mg/kg/injection, schedule: Q01DX009 (ip), vehicle: saline + alcohol 103 % of control

COc1cccc(CN2CCCN(/N=C/c3c4c(O)c5c(O)c(C)c6c(c5c3O)C(=O)C(C)(O/C=C/C(OC)C(C)C(OC(C)=O)C(C)C(O)C(C)C(O)C(C)/C=C/C=C(/C)C(=O)N4)O6)CC2)c1 (centres undefined)
inactive: dose: 12.5 mg/kg/injection, schedule: Q01DX009 (ip), vehicle: saline with Tween-80 108 % of control | dose: 25.0 mg/kg/injection, schedule: Q01DX009 (ip), vehicle: saline with Tween-80 109 % of control | [5] 103 % of control and 108 % of control | [6] 115 % of control

COc1ccc(NC(=O)c2ccc(C(=O)Nc3ccc(OC)cc3)cc2)cc1
inactive: dose: 50.0 mg/kg/injection, schedule: Q01DX001 (ip), vehicle: other 90 % of control | dose: 100.0 mg/kg/injection, schedule: Q01DX001 (ip), vehicle: other 95 % of control | dose: 200.0 mg/kg/injection, schedule: Q01DX001 (ip), vehicle: other 90 % of control | dose: 400.0 mg/kg/injection, schedule: Q01DX001 (ip), vehicle: other 95 % of control

CNC(=O)OCc1c(COC(=O)NC)c(-c2ccc(C(F)(F)F)cc2)n(C)c1C
inactive: dose: 3.13 mg/kg/injection, schedule: Q01DX009 (ip), vehicle: distilled water + Tween-80 123 % of control | [1] 115 % of control

C[Si](Cl)(CCl)CCl
inactive: [5] 118 % of control | [6] 116 % of control | dose: 200.0 mg/kg/injection, schedule: Q01DX009 (ip), vehicle: saline with Tween-80 118 % of control

CC(C)=CBr
inactive: [4] 105 % of control | [7] 105 % of control | [8] 110 % of control

CCOC(=O)NOCOC
inactive: [4] 115 % of control | [7] 114 % of control | [8] 109 % of control

O=C(O)/C(=C/c1cccs1)c1ccc(F)cc1
inactive: dose: 60.0 mg/kg/injection, schedule: Q01DX005 (ip), vehicle: saline with Tween-80 110 % of control | dose: 120.0 mg/kg/injection, schedule: Q01DX005 (ip), vehicle: saline with Tween-80 102 % of control | dose: 240.0 mg/kg/injection, schedule: Q01DX005 (ip), vehicle: saline with Tween-80 104 % of control

CCOC(=O)n1oc2ccccc2c1=O
inactive: [9] 99 % of control | [10] 98 % of control | [11] 98 % of control

CC1CCP(c2ccccc2)C1 (centres undefined)
inactive: dose: 100.0 mg/kg/injection, schedule: Q01DX001 (ip), vehicle: saline with Tween-80 105 % of control | dose: 200.0 mg/kg/injection, schedule: Q01DX001 (ip), vehicle: saline with Tween-80 116 % of control

CC1CCCC(C)N1C(=O)OCC12COC3(C)CCC(C)(OC1)N23 (centres undefined)
inactive: dose: 25.0 mg/kg/injection, schedule: Q01DX005 (ip), vehicle: saline 100 % of control | [9] 95 % of control | dose: 50.0 mg/kg/injection, schedule: Q01DX005 (ip), vehicle: saline 99 % of control and 100 % of control | [10] 109 % of control | dose: 100.0 mg/kg/injection, schedule: Q01DX005 (ip), vehicle: saline 104 % of control and 108 % of control | [11] 109 % of control | dose: 200.0 mg/kg/injection, schedule: Q01DX005 (ip), vehicle: saline 122 % of control and 96 % of control

C=C(C)CC1=C(C)C(=O)C(C)=C(C)C1=O
inactive: dose: 75.0 mg/kg/injection, schedule: Q04DX003 (ip), vehicle: Klucel (hydroxypropylcellulose) (HPC) 110 % of control | dose: 150.0 mg/kg/injection, schedule: Q04DX003 (ip), vehicle: Klucel (hydroxypropylcellulose) (HPC) 105 % of control | dose: 300.0 mg/kg/injection, schedule: Q04DX003 (ip), vehicle: Klucel (hydroxypropylcellulose) (HPC) 122 % of control

COc1cccc(C(c2cc3c(cc2O)OCO3)N2CCN(C(c3cc4c(cc3O)OCO4)c3cccc(OC)c3O)CC2)c1O (centres undefined)
inactive: dose: 60.0 mg/kg/injection, schedule: Q01DX005 (ip), vehicle: saline 98 % of control | dose: 120.0 mg/kg/injection, schedule: Q01DX005 (ip), vehicle: saline 98 % of control | dose: 240.0 mg/kg/injection, schedule: Q01DX005 (ip), vehicle: saline 100 % of control

COc1ncnc2c1ccn2C1OC(CO)C(O)C1O (centres undefined)
inactive: dose: 6.25 mg/kg/injection, schedule: Q01DX005 (ip), vehicle: Klucel (hydroxypropylcellulose) (HPC) 107 % of control | dose: 12.5 mg/kg/injection, schedule: Q01DX005 (ip), vehicle: Klucel (hydroxypropylcellulose) (HPC) 89 % of control

Cc1cc2n[se]nc2cc1C
inactive: dose: 6.25 mg/kg/injection, schedule: Q01DX009 (ip), vehicle: Klucel (hydroxypropylcellulose) (HPC) 107 % of control | dose: 12.5 mg/kg/injection, schedule: Q01DX009 (ip), vehicle: Klucel (hydroxypropylcellulose) (HPC) 96 % of control | dose: 25.0 mg/kg/injection, schedule: Q01DX009 (ip), vehicle: Klucel (hydroxypropylcellulose) (HPC) 100 % of control

O=C(O)CCC1NC(=O)NC1=O (centres undefined)
inactive: dose: 50.0 mg/kg/injection, schedule: Q01DX001 (ip), vehicle: saline 100 % of control | dose: 100.0 mg/kg/injection, schedule: Q01DX001 (ip), vehicle: saline 103 % of control | dose: 200.0 mg/kg/injection, schedule: Q01DX001 (ip), vehicle: saline 104 % of control | dose: 400.0 mg/kg/injection, schedule: Q01DX001 (ip), vehicle: saline 94 % of control
